Measurements as given in US8841456B2, “1,5-naphthyridine derivative or salt thereof” (FUJIFILM Corporation, priority 2011, dated 2014).
Read-outs that look alike come from different tables or passages of the source.

Key:
[1] = target: T1, glutathione S-transferase (GST)-fusion human ERK2 protein (Homo sapiens, UniProt P28482); experiment: ERK2 enzyme assay (LabChip mobility shift); type: biochemical; details: 2 nM ERK2, 4.25 μM FL-Peptide 8, 43 μM ATP
T1 construct: purchased Carna Biosciences, Inc; host or cells: E. coli expression system
T1 sequence (P28482 whole entry, the tested form may be a part): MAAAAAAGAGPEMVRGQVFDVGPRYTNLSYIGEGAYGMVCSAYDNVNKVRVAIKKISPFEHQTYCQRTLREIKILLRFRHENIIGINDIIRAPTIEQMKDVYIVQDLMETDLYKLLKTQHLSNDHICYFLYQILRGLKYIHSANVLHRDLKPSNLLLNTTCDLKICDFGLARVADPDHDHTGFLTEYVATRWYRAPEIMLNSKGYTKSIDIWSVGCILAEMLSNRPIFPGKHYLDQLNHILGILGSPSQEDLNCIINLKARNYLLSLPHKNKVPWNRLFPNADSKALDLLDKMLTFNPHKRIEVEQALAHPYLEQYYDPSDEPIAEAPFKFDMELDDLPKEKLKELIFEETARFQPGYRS
Method in brief: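 GST-tagged human ERK2 from E. coli, at 2 nM, was preincubated 15 min at room temperature with compound in Hepes pH 7.5 with MgCl2, DTT and Brij35. The reaction ran 120 min at 25 °C with 4.25 μM FL-Peptide 8 and 43 μM ATP (final). Phosphopeptide fraction was measured by mobility-shift separation to give IC50.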

[2] = test system: Human colon cancer cell line (HCT116); experiment: Cell growth inhibition test (Celltiter-Glo); type: cell-based; details: HCT-116, IC50 class, 72 hours culture, viable cells by Celltiter-Glo
Procedure: Evaluation of the cell proliferation inhibitory activity of the compound of the present invention was carried out according to the method below. Human colon cancer cell line (HCT116) McCoy's 5A (INVITROGEN)+Final Concentration 10% FBS+GLUTA Max (INVITROGEN) Celltiter-Glo™ Luminescent Cell Viability Assay (Promega Corporation) HCT116 was seeded on a 96-well culture microplate (Corning Inc.) at 750/well (90 uL/well), and a compound for evaluation (final concentration: 25.00 μM to 0.01 μM, 3-fold common ratio 8 points) was added thereto. After culturing in a CO2 incubator (37° C.) for 72 hours, the number of viable cells were calculated by Celltiter-Glo. For the measurement of luminescence intensity, EnVision (PerkinElmer, Inc.) was used. The inhibitory activity of the compound was calculated using IC50 (50% inhibitory concentration). The IC50 was calculated using XLfit (IDBS). The results of IC50 were evaluated according to the following evaluation criteria.

human PI3Kα protein = target: T2, human PI3Kα protein (Homo sapiens, UniProt P42336); experiment: PI3Kα enzyme assay (ADP-Glo kinase assay); type: biochemical; details: 3 nM PI3Kα, 50 μM PIP2, 100 μM ATP
T2 construct: purchased Carna Biosciences, Inc; host or cells: Baculovirus expression system
T2 sequence (P42336 whole entry): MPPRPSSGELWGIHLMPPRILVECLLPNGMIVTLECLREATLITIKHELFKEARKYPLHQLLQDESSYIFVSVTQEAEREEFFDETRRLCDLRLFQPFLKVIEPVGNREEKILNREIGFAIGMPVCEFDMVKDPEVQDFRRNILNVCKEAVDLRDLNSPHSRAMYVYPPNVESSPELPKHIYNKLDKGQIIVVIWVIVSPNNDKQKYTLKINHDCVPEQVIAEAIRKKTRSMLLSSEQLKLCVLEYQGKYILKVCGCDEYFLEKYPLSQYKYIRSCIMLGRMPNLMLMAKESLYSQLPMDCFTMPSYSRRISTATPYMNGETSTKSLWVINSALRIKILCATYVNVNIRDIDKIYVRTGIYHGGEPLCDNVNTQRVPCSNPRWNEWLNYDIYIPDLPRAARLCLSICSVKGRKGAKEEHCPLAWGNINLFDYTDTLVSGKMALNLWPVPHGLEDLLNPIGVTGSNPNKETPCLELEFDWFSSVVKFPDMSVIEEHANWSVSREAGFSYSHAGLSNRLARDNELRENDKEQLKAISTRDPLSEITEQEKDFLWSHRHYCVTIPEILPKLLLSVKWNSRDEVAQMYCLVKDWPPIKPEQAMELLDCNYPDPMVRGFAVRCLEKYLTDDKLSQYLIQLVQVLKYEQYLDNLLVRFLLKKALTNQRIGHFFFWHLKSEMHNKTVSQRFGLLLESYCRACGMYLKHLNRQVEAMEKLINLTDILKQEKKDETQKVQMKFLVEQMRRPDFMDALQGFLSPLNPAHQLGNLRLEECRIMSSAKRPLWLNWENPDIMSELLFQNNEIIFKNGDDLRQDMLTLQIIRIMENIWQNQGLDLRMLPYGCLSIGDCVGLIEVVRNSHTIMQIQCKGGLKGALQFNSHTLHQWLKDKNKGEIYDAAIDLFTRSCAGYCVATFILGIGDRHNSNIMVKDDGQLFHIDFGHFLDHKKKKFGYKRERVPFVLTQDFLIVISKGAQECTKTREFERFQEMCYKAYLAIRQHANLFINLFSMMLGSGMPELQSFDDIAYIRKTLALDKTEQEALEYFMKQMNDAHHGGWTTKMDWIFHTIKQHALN
T2 sequence (P27986 whole entry partner): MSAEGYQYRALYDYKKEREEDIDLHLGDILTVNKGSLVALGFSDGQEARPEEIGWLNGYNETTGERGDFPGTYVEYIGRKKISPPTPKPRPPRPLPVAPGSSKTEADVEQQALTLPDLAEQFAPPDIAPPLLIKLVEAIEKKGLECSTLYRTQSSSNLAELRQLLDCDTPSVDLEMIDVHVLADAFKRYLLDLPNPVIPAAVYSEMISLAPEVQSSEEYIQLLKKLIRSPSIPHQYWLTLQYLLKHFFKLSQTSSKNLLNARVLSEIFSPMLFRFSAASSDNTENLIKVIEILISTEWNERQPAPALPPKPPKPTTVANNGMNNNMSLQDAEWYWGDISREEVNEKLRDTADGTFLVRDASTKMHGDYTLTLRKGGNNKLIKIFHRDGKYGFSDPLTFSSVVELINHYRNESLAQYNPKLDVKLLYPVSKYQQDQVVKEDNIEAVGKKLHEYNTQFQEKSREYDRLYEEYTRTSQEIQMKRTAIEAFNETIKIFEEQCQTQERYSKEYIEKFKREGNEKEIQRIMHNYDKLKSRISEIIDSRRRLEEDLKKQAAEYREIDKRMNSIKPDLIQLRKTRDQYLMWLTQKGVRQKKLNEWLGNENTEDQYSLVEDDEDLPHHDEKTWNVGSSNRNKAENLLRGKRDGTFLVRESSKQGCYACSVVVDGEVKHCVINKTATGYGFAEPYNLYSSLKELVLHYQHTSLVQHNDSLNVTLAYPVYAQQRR
Method in brief: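 Baculovirus-expressed biotinylated human PI3Kα (3 nM) preincubated 15 min with compound in Tris pH 7.5, MgCl2, BSA, then reacted 60 min at 25 °C with 50 μM PIP2 and 100 μM ATP. ADP quantified by ADP-Glo luminescence; IC50 calculated.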

[3] = IC50 class, read-out: ERK2 Inhibitory Activity
[4] = IC50 class, read-out: PI3Kα Inhibitory Activity

Row | IC50 [1, 3] | IC50 [2] | IC50 (human PI3Kα protein; [4]) | IC50 ([1]; read-out: ERK2, IC50) | IC50 (human PI3Kα protein; read-out: PI3Kα, IC50) | SMILES
1 | 100 to 1000 nM | 1000 to 10000 nM | < 100 nM |  |  | CC(=O)N1CCN(c2cnc3ccc(NC(=O)NC4CCCC4)nc3c2)CC1 [Compound 0148]
2 | 100 to 1000 nM | < 1000 nM | < 100 nM |  |  | O=C(Nc1ccc2ncc(N3CCN(c4cccnc4)CC3)cc2n1)NC1CCCC1 [Compound 0157]
3 | 100 to 1000 nM | < 1000 nM | 100 to 1000 nM |  |  | O=C(Nc1ccc2ncc(N3CCN(c4ccccn4)CC3)cc2n1)NC1CCCC1 [Compound 0154]
4 | < 100 nM | 1000 to 10000 nM | < 100 nM |  |  | O=C(Nc1ccc2ncc(-c3ccccn3)cc2n1)NC1CCCC1 [Compound 0136]
5 | 100 to 1000 nM | < 1000 nM | < 100 nM |  |  | O=C(Nc1ccc2ncc(N3CCN(c4ccncc4)CC3)cc2n1)NC1CCCC1 [Compound 0158]
6 | > 10000 nM |  | 100 to 1000 nM |  |  | Cc1nc2ccc(NC(=O)NC3CCCC3)nc2cc1-c1cnn(C)c1 [Compound 0236]
7 | < 100 nM |  | < 100 nM |  |  | Cn1cc(-c2cnc3ccc(NC(=O)NC4CCCC4)nc3c2Cl)cn1 [Compound 0226]
8 | < 100 nM |  | 100 to 1000 nM |  |  | O=C(NCC1CCOC1)Nc1ccc2ncc(-c3cn[nH]c3)cc2n1 (centres unmarked) [Compound 0197]
9 | 100 to 1000 nM |  | 100 to 1000 nM |  |  | Cn1cc(-c2cnc3ccc(NC(=S)NC(=O)c4ccccc4)nc3c2)cn1 [Compound 0251]
10 | < 100 nM |  | < 100 nM |  |  | CC(C)(C)NC(=O)Nc1ccc2ncc(-c3cnn(CCCN4CCNCC4)c3)cc2n1 [Compound 0164]
11 | 100 to 1000 nM |  | 100 to 1000 nM |  |  | COc1cc(-c2cnc3ccc(NC(=O)NC4CCCC4)nc3c2)cnc1OC [Compound 0014]
12 | 100 to 1000 nM |  | < 100 nM |  |  | O=C(Nc1ccc2ncc(-c3cnn(C4CCNCC4)c3)cc2n1)NC1CCCC1 [Compound 0214]
13 | 100 to 1000 nM | < 1000 nM | < 100 nM |  |  | CN1CCC(n2cc(-c3cnc4ccc(NC(=O)NC5(C)CCCC5)nc4c3)cn2)CC1 [Compound 0255]
14 | < 100 nM |  | < 100 nM |  |  | CN(C)CCn1cc(-c2cnc3ccc(NC(=S)NC4CCCC4)nc3c2)cn1 [Compound 0209]
15 | < 100 nM |  | 100 to 1000 nM |  |  | O=C(Nc1ccc2ncc(-c3ccnc(F)c3)cc2n1)NC1CCCC1 [Compound 0039]
16 | > 10000 nM |  | 100 to 1000 nM |  |  | O=C(Nc1ccc2ncc(N3CCN(c4ccccc4)CC3)cc2n1)NC1CCCC1 [Compound 0153]
17 | < 100 nM | 1000 to 10000 nM | 100 to 1000 nM |  |  | O=C(Nc1ccc2ncc(-c3cccc(CO)c3)cc2n1)NC1CCCC1 [Compound 0041]
18 | < 100 nM |  | < 100 nM |  |  | O=C(Nc1ccc2ncc(-c3cn[nH]c3)cc2n1)NC1CC[C@H](O)C1 (some centres unmarked) [Compound 0091]

Row | IC50 [1, 3] | IC50 [2] | IC50 (human PI3Kα protein; [4]) | IC50 ([1]; read-out: ERK2, IC50) | IC50 (human PI3Kα protein; read-out: PI3Kα, IC50) | SMILES
19 | < 100 nM |  | < 100 nM |  |  | O=C(NCC1CCCC1)Nc1ccc2ncc(-c3cn[nH]c3)cc2n1 [Compound 0081]
20 | < 100 nM |  | < 100 nM |  |  | O=C(Nc1ccc2ncc(-c3cnn(CCN4CCCCC4)c3)cc2n1)NC1CCCC1 [Compound 0036]
21 | < 100 nM |  | 100 to 1000 nM |  |  | O=C(NCCOCc1ccccc1)Nc1ccc2ncc(-c3cn[nH]c3)cc2n1 [Compound 0107]
22 | 100 to 1000 nM |  | < 100 nM |  |  | CC1(NC(=O)Nc2ccc3ncc(-c4cnn(C5CCNCC5)c4)cc3n2)CCCC1 [Compound 0254]
23 | 100 to 1000 nM |  | 1000 to 10000 nM |  |  | O=C(Nc1ccc2ncc(-c3ccccc3CO)cc2n1)NC1CCCC1 [Compound 0040]
24 | < 100 nM |  | 100 to 1000 nM |  |  | CCNC(=O)Nc1ccc2ncc(-c3cn[nH]c3)cc2n1 [Compound 0054]
25 | < 100 nM |  | 100 to 1000 nM |  |  | CN(CCCNC(=O)Nc1ccc2ncc(-c3cn[nH]c3)cc2n1)c1ccccc1 [Compound 0105]
26 | 100 to 1000 nM |  | 1000 to 10000 nM |  |  | CN1CCC(NC(=O)Nc2ccc3ncc(-c4cn[nH]c4)cc3n2)CC1 [Compound 0078]
27 | 100 to 1000 nM | 1000 to 10000 nM | < 100 nM |  |  | O=C(Nc1ccc2ncc(N3CCOC3=O)cc2n1)NC1CCCC1 [Compound 0046]
28 | 100 to 1000 nM |  | < 100 nM |  |  | CC1(NC(=O)Nc2ccc3ncc(-c4cn[nH]c4)cc3n2)CCC1 [Compound 0195]
29 | < 100 nM |  | < 100 nM |  |  | O=C(Nc1ccc2ncc(-c3ccc(O)cc3)cc2n1)NC1CCCC1 [Compound 0034]
30 | < 100 nM |  | < 100 nM |  |  | O=C(Nc1ccc2ncc(-c3ccc4[nH]ncc4c3)cc2n1)NC1CCCC1 [Compound 0122]
31 | < 100 nM |  | < 100 nM |  |  | S=C(Nc1ccc2ncc(-c3cnn(CCCN4CCNCC4)c3)cc2n1)NC1CCCC1 [Compound 0220]
32 | < 100 nM |  | < 100 nM |  |  | O=C(Nc1ccc2ncc(-c3cnn(CCCN4CC[C@@H](F)C4)c3)cc2n1)NC1CCCC1 [Compound 0248]
33 | < 100 nM |  | 100 to 1000 nM | < 3 nM | 133 nM | O=C(Nc1ccc2ncc(-c3cn[nH]c3)cc2n1)NC1CCN(Cc2ccccc2)C1 (centres unmarked) [Compound 0069]
34 | 1000 to 10000 nM |  | < 100 nM |  |  | COc1cc(Nc2cnc3ccc(NC(=O)NC4CCCC4)nc3c2)cc(OC)c1 [Compound 0031]
35 | 100 to 1000 nM |  | < 100 nM |  |  | O=C(Nc1ccc2ncc(N3CC(OCCN4CCOCC4)C3)cc2n1)NC1CCCC1 [Compound 0241]

Row | SMILES | IC50 [1, 3] | IC50 [2] | IC50 (human PI3Kα protein; [4]) | IC50 ([1]; read-out: ERK2, IC50) | IC50 (human PI3Kα protein; read-out: PI3Kα, IC50)
36 | CCCC(C)(C)NC(=O)Nc1ccc2ncc(-c3cnn(CCCN4CCOCC4)c3)cc2n1 [Compound 0182] | < 100 nM | < 1000 nM | < 100 nM |  | 
37 | CN(C)CC(C)(C)Cn1cc(-c2cnc3ccc(NC(=O)NC4CCCC4)nc3c2)cn1 [Compound 0243] | 100 to 1000 nM | < 1000 nM | < 100 nM |  | 
